We go through one molecule from patent US6753010B2, “Soft gelatin capsule containing angelica oil” (Shandong Luye Phamaceutical Co., Ltd., priority 2000, dated 2004).

A short description of this series: Influence of temperature on ligustilide content in angelica essential oil (gas chromatography, internal standard diethyl phthalate). The note with it: for Content of ligustilide: in angelica essential oil, sealed vial. In kind it is physicochemical. The protocol: Gas chromatograph (Shimadzu GC-14B); Diethyl phthalate (Shanghai First Reagents Factory, purity is 99.7% tested by gas chromatography with area normalization method); angelica essential oil (991007).
Test group: Five portions of angelica essential oil (30 μl each) are placed separately in five 7 ml-sealing vials numbered with 0, 1, 2, 3 and 4, weighed accurately and sealed. The vials are laid in an oven (100° C.) and the samples are taken out of the oven after 0, 1, 2, 3 and 4 hours respectively. Anabout 16 μl of diethyl phthalate as the internal standard is added. Then the samples are weighed accurately and diluted with ca. 1 ml of ethyl alcohol additionally. According to the method in the item of ? Purity Test ? under “Protocol and Remarks of the Quality standard for Angelica essential oil” the content of ligustilide is determined.
Control group: Five portions of angelica essential oil (30 μl each) are placed separately in five 7 ml-sealing vials numbered with 0′, 1′, 2′, 3′ and 4′, weighed accurately and sealed. The vials are laid aside under room temperature of 20° C. and about 16 μl of diethyl phthalate as internal standard is added after 0, 1, 2, 3 and 4 hours respectively. […] with ca. 1 ml of ethyl alcohol additionally. According to the method in the item of ? Purity Test ? under “Protocol and Remarks of the Quality standard for Angelica essential oil”, the content of ligustilide is determined.

Turning to `CCC/C=C1\OC(=O)C2=C1CCC=C2` [ligustilide], the “Stability of ligustilide content (in words)” value is on record as “relatively stable” (in angelica essential oil under room temperature (20° C.)) and “decreases gradually” (in angelica essential oil under temperature of 100° C.). For the same molecule, the Content of ligustilide by setting is: (higher temperature (100° C.), 0 hour) 55.50%; (higher temperature (100° C.), 1 hour) 41.89%; (higher temperature (100° C.), 2 hours) 32.74%; (higher temperature (100° C.), 3 hours) 21.89%; (higher temperature (100° C.), 4 hours) 12.00%; (room temperature (20° C.), 0 hour) 55.5%. Also, the Content of ligustilide is reported as 56.01% (room temperature (20° C.), 1 hour); 56.66% (room temperature (20° C.), 2 hours); 55.78% (room temperature (20° C.), 3 hours); 55.39% (room temperature (20° C.), 4 hours).
